The values that follow come from patent publication US6933396B2, “Process to prepare psorospermin” (Cylene Pharmaceuticals, priority 2002, dated 2005).

One series has as its system various tumor cell lines. The experiment in a line: MTS cytotoxicity / cell viability assays with various tumor cell lines. It is filed as cell-based. From the text:
FIG. 1 illustrates a comparison of (R,R)-psorospermin with (R,R)-5-methoxy-psorospermin, (R,S)-5-methoxy-psorospermin, (S,R)-5-methoxy-psorospermin and (S,S)-5-methoxy-psorospermin in cell viability assays with various tumor cell lines.
MTS cytotoxicity data was collected for a comparison of (R,R)-psorospermin with (R,R)-5-methoxy-psorospermin, (R,S)-5-methoxy-psorospermin, (S,R)-5-methoxy-psorospermin and (S,S)-5-methoxy-psorospermin in cell viability assays with various tumor cell lines, the results of which are shown in FIG. 1.

The nature of series [1]: Blood plasma levels (pharmacokinetics) after i.v. injection in rats. The settings on record: for blood plasma levels of parent compound: over 24 h. The format is in vivo, Sprague Dawley rats. Here is the method:
Blood plasma levels of psorospermin over 24 h after a 5 mg/Kg injection i.v. in Sprague Dawley rats were measured. Blood plasma levels of 5-methoxy-psorospermin over 24 h after a 5 mg/Kg injection i.v. in Sprague Dawley rats were measured.

[2] abbreviates: 5 mg/Kg injection i.v., Sprague Dawley rats.

In the case of `COc1cccc2c(=O)c3c(OC)cc4c(c3oc12)C[C@H]([C@@]1(C)CO1)O4` [(R,R)-5-Methoxypsorospermin, (2′R,3′R) 5-Methoxy Psorospermin], the “activity relative to stereoisomeric counterparts” value in the series on various tumor cell lines (compared with (2R′, 3S′) or (2S′, 3S′) counterparts) was “more active than their (2R′, 3S′) or (2S′, 3S′) counterparts”. Also, the “antitumor activity in a variety of cell lines” value with various tumor cell lines (variety of cell lines including those of solid tumors and lymphomas, compared with natural product psorospermin) is “comparable antitumor activity to that of the natural product psorospermin”. The “time for which a therapeutic dose is exhibited in rodents” value in series [1] (5 mg/Kg injection i.v., Sprague Dawley rats, FIG. 3) was “exceeds two hours”. Besides, the “blood plasma levels of parent compound” value in series [1] (setting [2]) is “prolonged measurable quantities of the parent with a good half life”. Further, the systemic presence result in series [1] (in comparison with 2′R,3′R psorospermin) is given as “prolonged systemic presence in comparison with 2′R,3′R psorospermin”.
On to `COc1cc2c(c3oc4c(O)cccc4c(=O)c13)C[C@H]([C@@]1(C)CO1)O2` [psorospermin, (2′R,3′R) Psorospermin], for which the “blood plasma levels of parent compound” value is “Little parent compound can be detected within the first 24 h after dosing” in series [1] (setting [2]) and “could be barely detected at any time point” in series [1] (5 mg/Kg injection i.v., Sprague Dawley rats, listed as natural product).
